Series [1] deals with rat peritoneal cells. Description: Ex vivo histamine release assay in rat peritoneal cells (vs. Compound 48/80). It is filed as cell-based. The text has this: More desirable pharmacological tolerability can include a decrease in an undesirable side effect (e.g., histamine release, an indicator of mast cell degranulation) without a significant loss in activity of the compound.
Screening of the variant G protein receptor compounds against a control compound for histamine release can be done following standard assays. The standard assay can include comparison to a control compound known to elicit a histamine response (e.g., 48/80 having CAS No. 94724-12-6). Such an assay using rat peritoneal cells is described herein for the APJ compounds.
Test compounds were assayed in the ex vivo histamine release assay using a 3-point dose response. Concentrations of total histamine contained in the cells is used to correct for variability in the numbers of mast cells in the lavage per well.
Resident peritoneal cells were harvested from naïve Sprague Dawley rats (male 200-300 gr, Charles River). Rats were euthanized by CO2 asphyxiation and a skin incision was made along the middle-line of the abdomen. Thirty milliliters of HBSS (HyClone, cat#SH 30268.01) containing 20 mM HEPES and 0.2% BSA (heretofore Assay Buffer) were injected intraperitoneally using a 30 mL syringe with the attached 18 gauge needle. The abdomen was gently lavaged for 1-2 min and 7-10 milliliters of the peritoneal lavage were carefully aspirated. Cell count in the peritoneal lavage was determined using Cellometer Auto T4 (Nexcelom Bioscience). The peritoneal cell count was adjusted to […] cells/mL in Assay Buffer. Rat peritoneal cells were kept at room temperature before and during the assay.
For the 10-point assay, 3-fold serial dilutions were prepared for each test compound in 100% DMSO in 96-well plates (Greiner Bio One, Ref#651261)—from 100 μM down to […]. For the 3-point assay, 10-fold serial dilutions were prepared in 100% DMSO at 100 μM, 10 μM and 1 μM concentrations. From this plate, 5 μL of compound were transferred to a new plate containing 45 μL Assay Buffer to generate a compound plate with 10× final concentrations in 10% DMSO with Assay Buffer. In the final plates, column 11 contained 1% DMSO for the low-histamine-releasing control.
Suspensions of the rat peritoneal cells (90 μL of 2.75×10^5 cells/mL; →25,000 cells per well) were introduced into each well of a new 96-well microtiter plate (Greiner Bio One, Ref#651261) and 10 μL aliquots of the serially diluted compounds were transferred to the cells in each well. The microtiter plate was incubated for 30 min at room temperature. Following incubation cells were spun down (500 rpm, 7 min) and supernatants were collected for further analysis. Supernatants were diluted 6 times with the assay buffer (15 μL to 75 μL, for 90 μL total) and released histamine content was determined using HTRF® Histamine assay kit (CisBio, cat#62HTMPEB). To measure the total histamine in each well, cells were lysed by addition of 15 μL 5% TritonX-100 to each well followed by incubation for 15 minutes. The plates were then spun at 3000 rpm for 5 minutes, and 10 μL of supernatant were diluted 9-fold in assay buffer (10 μL to 80 μL for 90 μL total) to make the “total” histamine plate. Histamine content was measured as described above for the “released” histamine values.
The standard positive control was Compound 48/80 (Enzo Life Sciences), a oligomeric polymer mixture produced by the condensation of N-methyl-p-methoxyphenethylamine with formaldehyde. The trimer is the most abundant in the mixture Compound 48/80 is used to promote mast cell degranulation and activates G proteins by a mechanism analogous to that of mastoparan. […] See references: T. Higashijima et al., J. Biol., Chem., 265 14176 (1990); M. Mousli et al., FEBS Lett., 259 260 (1990); K. Gietzen et al., Biochim. Biophys. Acta, 736 109 (1983); K. Gietzen, Biochem. J., 1983 216 611 and C. Bronner et al., Biochim. Biophys. Acta, 920 301(1987).

The target in series [2] is T1, human APJ receptor (hAPJ) (Homo sapiens, UniProt P35414).
T1 construct: expressed in transfected cells
T1 sequence (P35414 1-380): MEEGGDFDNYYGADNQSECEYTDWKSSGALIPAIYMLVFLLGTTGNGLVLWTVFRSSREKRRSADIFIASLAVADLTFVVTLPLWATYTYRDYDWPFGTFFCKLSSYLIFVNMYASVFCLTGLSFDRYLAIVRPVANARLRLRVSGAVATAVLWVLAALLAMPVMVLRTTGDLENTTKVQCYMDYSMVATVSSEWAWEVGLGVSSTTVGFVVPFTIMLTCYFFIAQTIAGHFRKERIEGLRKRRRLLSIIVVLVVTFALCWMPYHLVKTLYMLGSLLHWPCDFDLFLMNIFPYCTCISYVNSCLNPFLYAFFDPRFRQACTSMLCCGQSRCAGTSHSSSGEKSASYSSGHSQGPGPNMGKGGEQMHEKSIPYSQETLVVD
Description: HTRF cAMP assay: inhibition of NKH477-stimulated cAMP in HEK cells stably expressing hAPJ. The series is classed as cell-based. Particulars: for % IA (cAMP inhibition, hAPJ HEK): intrinsic activity; for Ranking: composite class of EC50 (hAPJ), % IA and % histamine or formal (+) charge; for Emax: HEK293, read-out: % IA, bound stated. The text has this:
HTRF cAMP Assay and IP-One Assay (Cisbio)
HTRF (homogeneous time resolved fluorescence) is a technology developed by Cisbio Bioassays based on TR-FRET (time-resolved fluorescence resonance energy transfer). Cisbio Bioassays has developed a wide selection of HTRF-based assays compatible with whole cells, thereby enabling functional assays to run under more physiological conditions. The IP-One assays are competitive immunoassays using cryptate-labeled anti-IP1 monoclonal antibody and d2-labeled IP1. IP1 is a relatively stable downstream metabolite of IP3, and accumulates in cells following Gq receptor activation.
cAMP kits based on a competitive immunoassay using cryptate-labeled anti-cAMP antibody and d2-labeled cAMP were used to assay the effects of APJ compounds of the present invention. […] Cells are treated with 1 nG/mL doxycycline and seeded in all white 96 well plates @40 k/well overnight.
(In TR-FRET formats the signal depends on donor and acceptor labels being close together.)

The mark [3] stands for this setting: Table 6, hAPJ HEK cells, NKH477-stimulated cAMP, read-out: EC50 (cAMP inhibition, hAPJ HEK).
Setting [4] is: HTRF cAMP Assay, per data of Table 6.

Molecules are shown by their SMILES. Where two headings read alike, the source gives them in different places. Peptide text beside a SMILES is read from it.

For `CCCCCCCCCCCCCCCC(=O)N1CCC[C@H]1C(=O)N[C@@H](CCC(=O)O)C(=O)N[C@H](CCCCN)C(=O)N[C@@H](CCCNC(=N)N)C(=O)N[C@@H](CCCNC(=N)N)C(=O)N[C@@H](CO)C(=O)N[C@@H](C)C(=O)N[C@@H](CC(=O)O)C(=O)N[C@H](C(=O)N[C@@H](Cc1ccccc1)C(=O)N1CCC[C@H]1C(N)=O)[C@@H](C)CC` [Compound 4] (HELM PEPTIDE1{[CCCCCCCCCCCCCCCC(=O)[*:2]].P.E.[dK].R.R.S.A.D.I.F.P.[am]}$$$$V2.0), the “Histamine (% vs. 48/80)” value in series [1] is listed as -1%. Moreover, the half-maximal effective concentration (EC50) in series [2] (setting [3]) turned out to be 9 nM. Moreover, the “% IA (cAMP inhibition, hAPJ HEK)” value in series [2] (Table 6, hAPJ HEK cells) is given as 48%. Moreover, the Ranking result in series [2] was “* (EC50≦50 nM (hAPJ), % IA<50%)”.

On to `CCCCCCCCCCCCCCCC(=O)N[C@H](C(=O)N[C@H](C(=O)N[C@@H](Cc1ccccc1)C(=O)N[C@@H](CCCNC(=N)N)C(=O)N[C@@H](CO)C(=O)N1CCC[C@H]1C(=O)N[C@@H](CO)C(=O)N[C@@H](CCC(=O)O)C(=O)N[C@H](CCCCN)C(=O)N[C@@H](CCCNC(=N)N)C(=O)N[C@@H](CCCNC(=N)N)C(=O)N1CCC[C@H]1C(=O)N[C@@H](CO)C(=O)N[C@@H](C)C(=O)N[C@@H](CC(=O)O)C(=O)N[C@H](C(=O)N[C@@H](Cc1ccccc1)C(N)=O)[C@@H](C)CC)C(C)C)[C@@H](C)O` [Compound 22] (HELM PEPTIDE1{[CCCCCCCCCCCCCCCC(=O)[*:2]].T.V.F.R.S.P.S.E.[dK].R.R.P.S.A.D.I.F.[am]}$$$$V2.0), for which the “Histamine (% vs. 48/80)” value in series [1] is given as 60%. Further, in series [2] (setting [3]), the EC50 was determined as 17 nM. In addition, the “% IA (cAMP inhibition, hAPJ HEK)” value in series [2] (Table 6, hAPJ HEK cells) worked out at 47%. The Ranking entry in series [2] is reported as “* (EC50≦50 nM (hAPJ), % IA<50%)”.

For `CCCCCCCCCCCCCCCC(=O)N1CCC[C@H]1C(=O)N[C@H](CCCCN)C(=O)N[C@@H](CCCNC(=N)N)C(=O)N[C@@H](CCCNC(=N)N)C(=O)N[C@@H](CO)C(=O)N[C@@H](C)C(=O)N[C@@H](CC(=O)O)C(=O)N[C@H](C(=O)N[C@@H](Cc1ccccc1)C(=O)N[C@H](C(=O)N1CCC[C@H]1C(N)=O)[C@@H](C)CC)[C@@H](C)CC` [Compound 30] (HELM PEPTIDE1{[CCCCCCCCCCCCCCCC(=O)[*:2]].P.[dK].R.R.S.A.D.I.F.I.P.[am]}$$$$V2.0), the “Histamine (% vs. 48/80)” value in series [1] is 34%. For the same compound, in series [2] (setting [4]), the Emax was ≥ 80%. The EC50 in series [2] (HTRF cAMP Assay, per data of Table 6, read-out: EC50 (hAPJ), inhibition of cAMP production, bound stated) is ≤ 25 nM; in series [2] (setting [3]) it was 16 nM. Also, in series [2] (Table 6, hAPJ HEK cells), the “% IA (cAMP inhibition, hAPJ HEK)” value amounted to 86%. Also, the Ranking result in series [2] was “***** (EC50≦25 nM (hAPJ), % IA≧80% and either % histamine≦35% or formal (+) charge≦1)”. Also, in series [2] (concentration response curves, FIGS. 1 and 2, HEK cells stably expressing APJ), the “inhibition of NKH477-stimulated increase in cAMP, dose dependent” value is on record as “inhibited”.

On to `CCCCCCCCCCCCCCCC(=O)N1CCC[C@H]1C(=O)N[C@@H](CCCCNC(=O)[C@@H]1CCCN1C(=O)[C@H](Cc1ccccc1)NC(=O)[C@@H](NC(=O)[C@H](CC(=O)O)NC(=O)[C@H](C)NC(=O)[C@H](CO)NC(=O)[C@H](CCCNC(=N)N)NC(=O)[C@H](CCCNC(=N)N)NC(=O)[C@@H](CCCCN)NC(=O)[C@@H]1CCCN1C(C)=O)[C@@H](C)CC)C(=O)N[C@@H](CCCNC(=N)N)C(=O)N[C@@H](CCCNC(=N)N)C(=O)N[C@@H](CO)C(=O)N[C@@H](C)C(=O)N[C@@H](CC(=O)O)C(=O)N[C@H](C(=O)N[C@@H](Cc1ccccc1)C(=O)N1CCC[C@H]1C(N)=O)[C@@H](C)CC` [Compound 9] (HELM PEPTIDE1{[CCCCCCCCCCCCCCCC(=O)[*:2]].P.K.R.R.S.A.D.I.F.P.[am]}|PEPTIDE2{[ac].P.[dK].R.R.S.A.D.I.F.P}$PEPTIDE1,PEPTIDE2,3:R3-11:R2$$$V2.0), for which the “Histamine (% vs. 48/80)” value in series [1] was found to be 65%. For the same compound, the “% IA (cAMP inhibition, hAPJ HEK)” value in series [2] (Table 6, hAPJ HEK cells) came out at 84%. For the same compound, the Ranking result in series [2] is “** (EC50 25-50 nM (hAPJ), % IA 50-79% and either % histamine>35% or formal (+) charge>1)”.

For `CCCCCCCCCCCCCCCC(=O)N[C@H](C(=O)N[C@H](C(=O)N[C@@H](CC(=O)O)C(=O)N[C@@H](CCCNC(=N)N)C(=O)N[C@@H](CO)C(=O)N[C@@H](CO)C(=O)N[C@@H](CCC(N)=O)C(=O)N[C@@H](CCC(=O)O)C(=O)N[C@H](CCCCN)C(=O)N[C@@H](CCCNC(=N)N)C(=O)N[C@@H](CCCNC(=N)N)C(=O)N[C@@H](CO)C(=O)N[C@@H](C)C(=O)N[C@@H](CC(=O)O)C(=O)N[C@H](C(=O)N[C@@H](Cc1ccccc1)C(=O)N[C@H](C(N)=O)[C@@H](C)CC)[C@@H](C)CC)C(C)C)[C@@H](C)O` [Compound 6] (HELM PEPTIDE1{[CCCCCCCCCCCCCCCC(=O)[*:2]].T.V.D.R.S.S.Q.E.[dK].R.R.S.A.D.I.F.I.[am]}$$$$V2.0), the EC50 in series [2] (EC50 (cAMP inhibition, hAPJ HEK), Table 6, hAPJ HEK cells, NKH477-stimulated cAMP) is 19 nM; in series [2] (EC50 (hAPJ), inhibition of cAMP production, bound stated, HTRF cAMP Assay, per data of Table 6), 25 to 50 nM. Besides, in series [2] (setting [4]), the Emax lay within 50 to 79%. The “% IA (cAMP inhibition, hAPJ HEK)” value in series [2] (Table 6, hAPJ HEK cells) stood at 77%. Also, the Ranking entry in series [2] is “*** (EC50 25-50 nM (hAPJ), % IA 50-79% and either % histamine≦35% or formal (+) charge≦1)”.

For the compound `CCCCCCCCCCCCCCCC(=O)N[C@H](C(=O)N[C@H](C(=O)N[C@@H](CC(=O)O)C(=O)N[C@@H](CCCNC(=N)N)C(=O)N[C@@H](CO)C(=O)N[C@@H](CO)C(=O)N[C@@H](CCCNC(=N)N)C(=O)N[C@@H](CCC(=O)O)C(=O)N[C@H](CCCCN)C(=O)N[C@@H](CCCNC(=N)N)C(=O)N[C@@H](CCCNC(=N)N)C(=O)N[C@@H](CCC(=O)O)C(=O)N[C@@H](CO)C(=O)N[C@@H](C)C(=O)N[C@@H](CC(=O)O)C(=O)N[C@H](C(=O)N[C@@H](Cc1ccccc1)C(=O)N[C@H](C(N)=O)[C@@H](C)CC)[C@@H](C)CC)C(C)C)[C@@H](C)O` [Compound 5] (HELM PEPTIDE1{[CCCCCCCCCCCCCCCC(=O)[*:2]].T.V.D.R.S.S.R.E.[dK].R.R.E.S.A.D.I.F.I.[am]}$$$$V2.0), the concentration giving a half-maximal response (EC50) in series [2] (setting [3]) is 40 nM. In addition, the “% IA (cAMP inhibition, hAPJ HEK)” value in series [2] (Table 6, hAPJ HEK cells) is reported as 41%. Also, in series [2], the Ranking result was “* (EC50≦50 nM (hAPJ), % IA<50%)”.

As usually defined, the EC50 is the concentration needed to bring the measured effect to its halfway point.

These data come from US20160159861A1, “APJ Receptor Compounds” (priority 2013, published 2016).
